Experimental data published in US9688666B2, “Lamivudine salts” (Tobira Therapeutics, Inc., priority 2013, dated 2017).

Columns and labels:
Format in all cases: physicochemical
[1] = Gravimetric vapor sorption (GVS), hygroscopicity; details: 25 degrees C, relative humidity 0% to 90% in 10% RH increments
From the text: A crystalline form can be characterized by gravimetric vapor sorption (GVS). A GVS plot can be a graph of weight gain or loss against relative humidity. The total weight gain or loss is often reported as a weight percent (wt %), the value of which allows for and includes an appropriate margin of error that can be represented by the symbol “±.” For example, a weight change of about 2.0±0.5% can refer to a range from about 2+0.5%, that is, 2.5%, to about […], that is, about 1.5%. Depending on the sample preparation technique, the calibration technique applied to the instrument, human operation variation, the nature of the particular instrument being used, and other factors known to the art, the appropriate margin of error for a weight gain or loss can be about ±2%, about ±1%, about ±0.75%, about ±0.5%, about ±0.25%, or less. Among other things, GVS can be useful for determining whether a crystalline form changes upon exposure to humidity.
Gravimetric vapor sorption plots were obtained on an ‘Iga Sorp’ vapor sorption balance manufactured by Hidden Analytical Instruments, which was calibrated according to manufacturer recommendations. Samples were dried by maintaining a 0% humidity until no additional weight change was measured. […] After equilibration, the weight change was measured, and the RH was then increased by 10% following the above-described equilibration procedure. […]

[2] = Storage stability at ambient temperature and humidity, XRPD before and after; details: stored in a cupboard at ambient temperature and humidity for 16 weeks
Procedure: A sample of lamivudine hydrochloride polymorph Form II was analyzed by XRPD, and then stored in a cupboard at ambient temperature and humidity for 16 weeks, after which the sample was re-analyzed by XRPD. FIG. 32 compares the XRPD pattern obtained before storage (top pattern) and after 16 weeks of storage (middle pattern) with the XRPD pattern of lamivudine hydrochloride polymorph Form I obtained by the method of Example 1 (bottom pattern).

[3] = Competitive slurry of Form I/Form II mixture, product examined by XRPD; details: 20 mg Form I + 20 mg Form II suspended in 400 μL acetone or 400 μL isopropanol, shaken at ambient temperature for 72 hours; same result in both cases
Procedure: A first mixture of 20 mg lamivudine hydrochloride polymorph Form I and 20 mg lamivudine hydrochloride polymorph Form II was suspended in 400 μL of acetone, and a second mixture of 20 mg lamivudine hydrochloride polymorph Form I and 20 mg lamivudine hydrochloride polymorph Form II was suspended in 400 μL isopropanol. Both mixtures were shaken at ambient temperature for 72 hours, after which the resulting product was examined by XRPD. In both cases, the resulting product an XRPD diffraction pattern substantially similar to that of FIG. 6.

Row | Structure (SMILES) | GVS reversible weight gain [1] | solid form stability on storage (XRPD) [2] | relative thermodynamic stability of polymorphs (form of product by XRPD) [3]
1 | Cl.Nc1ccn([C@@H]2CS[C@H](CO)O2)c(=O)n1 [listing 1 of 2 here] | ≤ 1% | – | –
2 | Cl.Nc1ccn([C@@H]2CS[C@H](CO)O2)c(=O)n1 [listing 2 of 2 here] | – | spontaneously converting to lamivudine hydrochloride polymorph Form I after 16 weeks of storage | less thermodynamically stable than, and transforming into, lamivudine hydrochloride polymorph Form I
